The results in this text go back to patent publication US9067943B2, “[1,2,3]triazolo[4,5-D]pyrimidine derivatives” (priority 2011, dated 2015).

The target of assay [1] is T1, human CB1 receptors (Homo sapiens, UniProt P21554).
T1 construct: expressed in transfected cells; host or cells: CHO cells
The experiment in a line: cAMP assay. It counts as cell-based. The method in brief:
(§1)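 CHO cells expressing human CB1 or CB2 were preincubated 30 min at 30 °C in Krebs Ringer bicarbonate buffer with 1 mM IBMX, then exposed to compounds for 30 min at 30 °C. cAMP was measured by time-resolved FRET against a cAMP standard curve, and EC50 values were derived.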
On the technique in general: Changes in cAMP serve as a functional read-out for many G protein-coupled receptors.

Assay [2] has as its target T2, human CB2 receptors (Homo sapiens, UniProt P34972).
T2 construct: expressed in transfected cells; host or cells: CHO cells
The experiment in a line: cAMP assay. It counts as cell-based. The method in brief: as §1

The mark [3] stands for this setting: functional cAMP assay, CHO cells expressing human CB2, read-out: human CB2 EC50.

Like-named read-outs stand apart in the source and are kept apart here. A value given as a limit tells only on which side of the number the result lay.

T2 sequence (P34972 whole entry): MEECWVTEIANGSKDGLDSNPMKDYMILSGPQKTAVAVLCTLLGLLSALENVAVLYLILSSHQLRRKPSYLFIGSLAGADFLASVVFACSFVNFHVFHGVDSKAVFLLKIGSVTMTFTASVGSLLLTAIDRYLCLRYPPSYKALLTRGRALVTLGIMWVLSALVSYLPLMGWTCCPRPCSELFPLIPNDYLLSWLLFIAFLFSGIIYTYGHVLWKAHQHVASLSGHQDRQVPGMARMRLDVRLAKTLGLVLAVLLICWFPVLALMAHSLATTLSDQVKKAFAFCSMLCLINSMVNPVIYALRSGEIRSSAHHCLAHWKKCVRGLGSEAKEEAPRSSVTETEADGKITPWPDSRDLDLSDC
T1 sequence (P21554 whole entry): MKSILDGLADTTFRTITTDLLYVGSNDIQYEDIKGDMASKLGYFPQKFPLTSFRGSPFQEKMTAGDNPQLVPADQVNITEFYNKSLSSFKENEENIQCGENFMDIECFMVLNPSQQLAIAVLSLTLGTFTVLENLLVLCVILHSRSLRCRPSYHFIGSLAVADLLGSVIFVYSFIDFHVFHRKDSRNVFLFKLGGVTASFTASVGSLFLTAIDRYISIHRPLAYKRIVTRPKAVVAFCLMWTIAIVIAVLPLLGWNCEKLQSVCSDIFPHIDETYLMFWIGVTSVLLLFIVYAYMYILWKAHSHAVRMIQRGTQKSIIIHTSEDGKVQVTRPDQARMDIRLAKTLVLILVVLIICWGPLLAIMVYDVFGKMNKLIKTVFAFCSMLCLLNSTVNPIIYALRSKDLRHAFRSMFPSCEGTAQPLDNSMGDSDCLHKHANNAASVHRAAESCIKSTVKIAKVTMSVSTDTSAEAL

Turning to `Cc1nonc1Cn1nc2nc(C(C)(C)C)nc(N3CC[C@@](C)(O)C3)c2n1` [Example 131-b, (R)-1-[5-tert-Butyl-2-(4-methyl-furazan-3-ylmethyl)-2H-[1,2,3]triazolo[4,5-d]pyrimidin-7-yl]-3-methyl-pyrrolidin-3-ol], the results for the EC50 in assay [1] and in assay [2] were > 10 µM and 0.0614 µM, respectively.

Regarding `CC(C)(C)c1nc(N2CC[C@](C)(O)C2)c2nn(CCC(F)(F)F)nc2n1` [Example 132-a, (S)-1-[5-tert-Butyl-2-(3,3,3-trifluoro-propyl)-2H-[1,2,3]triazolo[4,5-d]pyrimidin-7-yl]-3-methyl-pyrrolidin-3-ol], the EC50 in assay [1] is > 10 µM; in assay [2], 0.0181 µM.

As for `CC(C)(C)c1nc(N2CC[C@@](C)(O)C2)c2nn(CCC(F)(F)F)nc2n1` [Example 132-b, (R)-1-[5-tert-Butyl-2-(3,3,3-trifluoro-propyl)-2H-[1,2,3]triazolo[4,5-d]pyrimidin-7-yl]-3-methyl-pyrrolidin-3-ol], the results for the EC50 in assay [1] and in assay [2] were > 10 µM and 0.0698 µM, respectively.

As for `CC(C)(C)c1nc(N2CC[C@](C)(O)C2)c2nn(Cc3nnnn3C3CC3)nc2n1` [Example 133-a, (S)-1-[5-tert-Butyl-2-(1-cyclopropyl-1H-tetrazol-5-ylmethyl)-2H-[1,2,3]triazolo[4,5-d]pyrimidin-7-yl]-3-methyl-pyrrolidin-3-ol], the EC50 is > 10 µM in assay [1] and 0.126 µM in assay [2] (setting [3]).

In the case of `CC(C)(C)c1nc(N2CC[C@@](C)(O)C2)c2nn(Cc3nnnn3C3CC3)nc2n1` [Example 133-b, (R)-1-[5-tert-Butyl-2-(1-cyclopropyl-1H-tetrazol-5-ylmethyl)-2H-[1,2,3]triazolo[4,5-d]pyrimidin-7-yl]-3-methyl-pyrrolidin-3-ol], the EC50 in assay [1] was > 10 µM; in assay [2] (setting [3]), 0.547 µM.

Turning to `CC(=O)N[C@H]1CCN(c2nc(OCC(C)(C)C)nc3nn(Cc4ccccc4Cl)nc23)C1` [Example 134, N—{(S)-1-[2-(2-Chloro-benzyl)-5-(2,2-dimethyl-propoxy)-2H-[1,2,3]triazolo[4,5-d]pyrimidin-7-yl]-pyrrolidin-3-yl}-acetamide], the EC50 in assay [1] is > 10 µM; in assay [2] (setting [3]), 0.682 µM.

Take `CC(=O)N[C@H]1CCN(c2nc(OCC(C)(C)C)nc3nn(Cc4ncccc4Cl)nc23)C1` [Example 135, N—{(S)-1-[2-(3-Chloro-pyridin-2-ylmethyl)-5-(2,2-dimethyl-propoxy)-2H-[1,2,3]triazolo[4,5-d]pyrimidin-7-yl]-pyrrolidin-3-yl}-acetamide]: the EC50 in assay [1] was > 10 µM; in assay [2] (setting [3]) it was 0.606 µM.

Consider `CC(C)(C)Nc1nc(N2CCC(F)(F)C2)c2nn(Cc3ccccc3C(F)(F)F)nc2n1` [Example 136, tert-Butyl-[7-(3,3-difluoro-pyrrolidin-1-yl)-2-(2-trifluoromethyl-benzyl)-2H-[1,2,3]triazolo[4,5-d]pyrimidin-5-yl]-amine], for which the figures for the EC50 in assay [1] and in assay [2] were > 10 µM and 0.035 µM, respectively.

As for `CC(C)(C)Nc1nc(N2CCC(F)(F)C2)c2nn(Cc3ccccc3S(C)(=O)=O)nc2n1` [Example 137, tert-Butyl-[7-(3,3-difluoro-pyrrolidin-1-yl)-2-(2-methanesulfonyl-benzyl)-2H-[1,2,3]triazolo[4,5-d]pyrimidin-5-yl]-amine], the figures for the EC50 in assay [1] and in assay [2] were > 10 µM and 0.0053 µM, respectively.

On to `CC(C)(C)Nc1nc(N2CCC(F)(F)C2)c2nn(Cc3ncccc3Cl)nc2n1` [Example 138, tert-Butyl-[2-(3-chloro-pyridin-2-ylmethyl)-7-(3,3-difluoro-pyrrolidin-1-yl)-2H-[1,2,3]triazolo[4,5-d]pyrimidin-5-yl]-amine], for which the values for the EC50 in assay [1] and in assay [2] were > 10 µM and 0.054 µM, respectively.

For `Cn1nnnc1Cn1nc2nc(NC(C)(C)C)nc(N3CCC(F)(F)C3)c2n1` [Example 139, tert-Butyl-[7-(3,3-difluoro-pyrrolidin-1-yl)-2-(1-methyl-1H-tetrazol-5-ylmethyl)-2H-[1,2,3]triazolo[4,5-d]pyrimidin-5-yl]-amine], the results for the EC50 in assay [1] and in assay [2] were > 10 µM and 0.0281 µM, respectively.

On to `Cc1nonc1Cn1nc2nc(NC(C)(C)C)nc(N3CCC(F)(F)C3)c2n1` [Example 140, tert-Butyl-[7-(3,3-difluoro-pyrrolidin-1-yl)-2-(4-methyl-furazan-3-ylmethyl)-2H-[1,2,3]triazolo[4,5-d]pyrimidin-5-yl]-amine], for which the EC50 in assay [1] was > 10 µM; in assay [2] it was 0.0061 µM.

For the molecule `CC(=O)N[C@H]1CCN(c2nc(O[C@@H](C)C(F)(F)F)nc3nn(Cc4ccccc4Cl)nc23)C1` [Example 141, N—{(S)-1-[2-(2-Chloro-benzyl)-5-((S)-2,2,2-trifluoro-1-methyl-ethoxy)-2H-[1,2,3]triazolo[4,5-d]pyrimidin-7-yl]-pyrrolidin-3-yl}-acetamide], the EC50 in assay [1] was > 10 µM; in assay [2] (setting [3]), 1.15 µM.

Take `CC(=O)N[C@H]1CCN(c2nc(O[C@@H](C)C(F)(F)F)nc3nn(Cc4ccccc4C(F)(F)F)nc23)C1` [Example 142, N—{(S)-1-[2-(2-Trifluoromethyl-benzyl)-5-((S)-2,2,2-trifluoro-1-methyl-ethoxy)-2H-[1,2,3]triazolo[4,5-d]pyrimidin-7-yl]-pyrrolidin-3-yl}-acetamide]: the EC50 was > 10 µM in assay [1] and 1.11 µM in assay [2] (setting [3]).

`CC(=O)N[C@H]1CCN(c2nc(O[C@@H](C)C(F)(F)F)nc3nn(Cc4ccccc4S(C)(=O)=O)nc23)C1` [Example 143, N—{(S)-1-[2-(2-Methanesulfonyl-benzyl)-5-((S)-2,2,2-trifluoro-1-methyl-ethoxy)-2H-[1,2,3]triazolo[4,5-d]pyrimidin-7-yl]-pyrrolidin-3-yl}-acetamide]: the EC50 was > 10 µM in assay [1] and 1.73 µM in assay [2] (setting [3]).

Turning to `CC(=O)N[C@H]1CCN(c2nc(NC(C)(C)C)nc3nn(Cc4ccccc4Cl)nc23)C1` [Example 144, N—{(S)-1-[5-tert-Butylamino-2-(2-chloro-benzyl)-2H-[1,2,3]triazolo[4,5-d]pyrimidin-7-yl]-pyrrolidin-3-yl}-acetamide], the EC50 in assay [1] was > 10 µM; in assay [2] (setting [3]), 1.95 µM.

On to `Cn1nnnc1Cn1nc2nc(NC(C)(C)C)nc(N3CC[C@H](O)C3)c2n1` [Example 145, (S)-1-[5-tert-Butylamino-2-(1-methyl-1H-tetrazol-5-ylmethyl)-2H-[1,2,3]triazolo[4,5-d]pyrimidin-7-yl]-pyrrolidin-3-ol], for which the EC50 in assay [1] was > 10 µM; in assay [2] (setting [3]) it was 1.09 µM.

The term EC50 denotes the concentration that produces a half-maximal response.
